How the values were obtained:
male Wistar rats = assay: ICSS thresholds during and after withdrawal from chronic nicotine, bupropion; type: in vivo, rat
Source text: Trials began with an electrical stimulus followed by a 7.5-s response window within which the animal could make a response to receive a second contingent stimulus identical to the initial noncontingent stimulus. A response during this 7.5-s window was considered a positive response, whereas the lack of a response was considered a negative response. Additional responses during a 2-s period immediately following a positive response had no consequence. The intertrial interval (ITI) that followed either a positive response or the end of the response window (in the case of a negative response) ranged from 7.5 to 12.5 s with an average duration of 10 s. […] Subjects then were tested on a current-threshold procedure in which stimulus intensities were varied during four alternating descending and ascending series with a step size of […]. Blocks of three trials were offered at each current step with the starting current of the first descending series set at […] above the subjects' individual baseline thresholds estimated at the end of preliminary training. […] An ascending series was terminated after two consecutive blocks of trials during which the animal made positive responses on at least two out of the three trials or after 15 successive increments were presented. The mean of the four current thresholds from the alternating series was defined as the subject's ICSS threshold for that session. A series was terminated after either 15 stimulus increments (or decrements) had occurred, or after the determination of the threshold for the series (see below). Each test session typically lasted 30 min.
Naive animals were prepared with osmotic minipumps containing either an individualized nicotine solution (3.16 mg/kg per day, free base) or saline. […] After implantation of the minipumps, thresholds were assessed daily thereafter to assess the effects of chronic nicotine exposure on reward thresholds. Seven days (exactly seven 24-h periods) after pump insertion, the pumps were removed in order to precipitate the nicotine withdrawal syndrome. ICSS thresholds were measured 12, 18, 24, 36, 48 and 72 h after pump removal. Animals were injected with bupropion (0, 10, 20, 40 mg/kg IP; n=8-11) 30 min prior to the 18-h time point.

Wistar rats [1] = assay: Cocaine self-administration under a fixed ratio schedule, ShA and LgA rats; type: in vivo, rat
Procedure: Rats (n=14) were food restricted to maintain them at 85% of their normal body weight obtained under free-feeding conditions, then trained to press a lever for 45 mg food pellets on a fixed-ratio 5 (FR5) schedule of reinforcement. […] Thus, a FR5 TO20 sec schedule of reinforcement was used.
The frequency of the stimulation was selected for individual animals so that baseline current-intensity thresholds of each subject were within 50-200 μA, and thus allowed both threshold elevations and lowerings to be detected. The frequency was held constant throughout the experiment. […] Current intensities were altered in 5 μA steps. […] Each testing session was ~30 min in duration. […] From day 10 onwards (the ‘escalation’ period), access to cocaine self-administration was increased from 1 h to 6 h per daily session in one group of rats (Long Access or LgA rats; n=7). Previous studies have shown that this schedule of access to cocaine self-administration results in a progressive increase or ‘escalation’ in daily cocaine consumption (Ahmed and Koob, 1997; Ahmed et al. 2001). In the other group (Short Access or ShA rats; n=7), access to cocaine self-administration was maintained at 1 h per daily session. Previous studies have shown that this schedule of access to cocaine self-administration maintains a stable level of daily cocaine consumption. After 22 days of 1 h (ShA) or 6 h (LgA) daily access to cocaine self-administration, both groups of rats received their first MPEP injection.

Wistar rats [2] = assay: Cocaine, nicotine and food responding under a progressive ratio schedule; type: in vivo, rat
Source text: Under a fixed ratio schedule of reinforcement, as described above, an animal responds a ‘fixed’ number of times on an active lever to obtain a drug infusion. Fixed ratio (FR) schedules of reinforcement provide important information on whether a drug is reinforcing. […] By determining how hard an animal is willing to work for a drug, while limiting total intake, the PR schedule allows better separation of motivation for drug consumption from possible satiating effects of cumulative drug doses (Stafford et al. 1998). Such characteristics result in theoretically different interpretations of the factors controlling drug-seeking behavior on a PR compared with a FR. […] After acquisition of cocaine or nicotine self-administration under an FR, as described above, rats were switched to a PR schedule of reinforcement in which the following sequence of level presses was required to receive each subsequent infusion of nicotine or cocaine: 5, 10, 17, 24, 32, 42, 56, 73, 95, 124, 161, 208, etc. Rats were injected with MPEP (0, 1, 3 or 9 mg/kg) 30 min prior to each PR session. All PR sessions lasted for 3 h. All subjects reached breaking-points during the 3 hour session.

mice [3] = conditions: 30 mg/kg i.p.; cited from earlier work
mice [4] = conditions: Chiamulera et al. 2001; cited from earlier work

Row | Compound | day of maximal threshold-lowering effect (male Wistar rats; nicotine via minipumps) [days] | brain reward threshold (male Wistar rats; nicotine via minipumps 3.16 mg/kg per day for 7 days) | time points with significant elevation in reward thresholds post-withdrawal (male Wistar rats; nicotine withdrawal, saline-injected animals) | brain reward thresholds (male Wistar rats; withdrawal from chronic nicotine administration) | cocaine responding (Wistar rats [1]; 3, 6 and 9 mg/kg MPEP, ShA and LgA rats collapsed) | cocaine responding (Wistar rats [1]; 3, 6 and 9 mg/kg MPEP, ShA rats) | cocaine self-administration (Wistar rats [1]; MPEP 1-9 mg/kg, FR5 TO20 sec) | cocaine responding (Wistar rats [1]; only the highest dose of MPEP (9 mg/kg), LgA rats) | responding for food (Wistar rats [2]; MPEP 1-9 mg/kg, PR schedule) | responding under a progressive ratio schedule (motivation) (Wistar rats [2]; MPEP 1-9 mg/kg, cocaine, nicotine, food) | break point (Wistar rats [2]; PR schedule, cocaine and nicotine) | rotarod performance (mice [3]) | cocaine self-administration (mice [4])
1 | CN1CCCC1c1cccnc1 (single isomer, unassigned; (-)) [nicotine, (−)-1-methyl-2-(3-pyridyl) pyrrolidine] | 3 | small yet significant reduction in brain reward threshold | up to 36 h | significantly elevated brain reward thresholds |  |  |  |  |  |  |  |  | 
2 | Cc1cccc(C#Cc2ccccc2)n1 [MPEP, 2-methyl-6-(phenylethynyl)-pyridine] |  |  |  |  | significantly decreased cocaine responding in the collapsed group | significantly decreased cocaine responding in ShA rats | decreased cocaine self-administration in ShA and LgA rats | significantly decreased cocaine responding in LgA rats | no statistically significant effect on responding for food | decreased the motivation of rats to obtain cocaine or nicotine without affecting their motivation for food | significantly lowered the break point for cocaine and nicotine | had no effect on rotarod performance | dose-dependent reduction in cocaine self-administration without affecting responding for food
